Values of other authors in US20180116920A1, “MULTI-STEP PROCESS FOR NO PRODUCTION” (BSN medical GmbH, priority 2015, published 2018).
Blank lines part the entries; values can stand above or below the compound they belong to.

How the values were obtained:
[1] = generally assumed

standard redox potential (at pH 7 and 25° C.): −0.04 V
Compound: O=C1O[C@H]([C@@H](O)CO)C(O)=C1O [ascorbic acid]

redox potential (cysteine-cystine, 25° C., pH 7.0): −0.2 Volt
Compound: N[C@@H](CS)C(=O)O [cysteine]

Compound: nitrogen monoxide
maximum solubility of NO in aqueous solution [1]: approximately 2 mM
